Experiments:
[1] = mouse model of tibia bone fracture (96); cited from earlier work
AXL receptors = settings: osteoporosis mouse model (97); cited from earlier work
mouse cornea [2] = test: Corneal wound healing 20 h after injury (methylene blue stained wounded area); format: in vivo; settings: 20 h after injury and topical treatment; compared to vehicle
Description: Studies have shown that PEDF+DHA promotes corneal wound healing in rabbit (20, 21), and in normal and diabetic mice (24, 25) after experimental surgery. We validated the ability of RvD6s (either RvD6 or RvD6si) in stimulating corneal wound healing. The right mouse eyes were injured, and the animals were divided into four groups: vehicle, PEDF+DHA, RvD6, and RvD6si (FIG. 4).
(§1) Mice were anesthetized with a mix of ketamine (200 mg/kg) and xylazine (10 mg/kg) injected intraperitoneally, and one drop of proparacaine hydrochloride solution (0.5%) was applied to the right eye subjected to injury. As previously described (19, 29), the center of the cornea was demarcated with a 2 mm trephine, and the epithelium and the anterior stroma were gently removed under a surgical microscope using a corneal rust ring remover (Algerbrush II; Alger Equipment Co., Lago Vista, TX, USA). One drop of 0.3% of tobramycin ophthalmic solution (Henry Schein, Melville, NY, USA) was applied to the eye to prevent postoperative infection. The same investigator (J.H.) performed all surgeries. Afterward, 10 μl of PEDF (50 ng/ml) plus DHA (50 nM) or DHA-derived lipid mediators were applied topically, as explained in each experimental design.
Mice were euthanized 20 h after injury and treatment, and corneas were stained with 0.5% methylene blue for 20 sec and then washed with PBS for 2 min. Photographs were taken with a dissecting microscope (SMZ 1500; Nikon, Tokyo, Japan) through an attached digital camera (DXM 1200; Nikon). The images corresponding to the wounded area were quantified using Photoshop CC 2014 software (Adobe, San Jose, CA, USA).

mouse cornea [3] = test: Corneal sensitivity measurement (Belmonte non-contact aesthesiometer); format: in vivo; settings: day 9 after injury and treatment; vs vehicle
Description: Corneal sensitivity was evaluated at days 3, 6, 9 and 12 after corneal injury and treatment (FIG. 4). A new methodology to measure the sensation in mouse cornea was introduced using the Belmonte non-contact aesthesiometer. […] It is important to note that this range of normal corneal sensitivity is critical to evaluate corneal sensation since the Belmonte non-contact aesthesiometer working flow rate is from 20 to 200 ml/min. The range of normal corneal sensitivity from […] in the mouse was regarded as successful recovery after injury and treatment, and it was used to normalize the measurements.
as §1
The non-contact corneal aesthesiometer has been described as a more reliable method than the standard Cochet-Bonnet aesthesiometer to determine the corneal sensation threshold (54). Therefore, for corneal sensation measurement, the Belmonte non-contact corneal aesthesiometer (55) was used with some modification. Briefly, one researcher held the mouse and kept the air output needle at a distance of 3 mm from the cornea. Another researcher controlled the air flow rate. The measurements started at an air flow rate of 80 ml per minute and then increased gradually by ten units until the mouse started blinking. When the mouse blinked, the air flow rate was recorded as the final corneal sensitivity index.

corneal nerves [4] = test: Corneal nerve analysis (PGP9.5 and SP whole-mount nerve density); format: in vivo, mouse
Description: PEDF+DHA stimulates corneal nerve regeneration in injury animal models (20-25). It was important to confirm the biological activity of RvD6si as a lipid mediator underlying the action of PEDF+DHA. To validate this, mice were injured and treated (as described in FIG. 4). Isolated corneas were stained with PGP 9.5, a pan-neuronal marker, and with SP neuropeptide antibodies. The density of non-injured corneal nerves positive to PGP 9.5 and SP, respectively, was used to normalize the values (FIG. 5). Substance P is a main neuropeptide in mammalian corneas (26-28).
as §1
Twelve days after injury and treatment, mice were euthanized, and the eyes enucleated and fixed with Zamboni's fixative (American Master Tech Scientific, Lodi, CA, USA) for 45 min at room temperature. The corneas were then excised and fixed for an additional 15 min, followed by 3 washes with PBS. To block nonspecific binding, corneas were incubated with 10% normal goat serum plus 0.5% Triton X-100 in PBS for 1 h at room temperature. Afterward, corneas were incubated with the primary antibodies, rabbit monoclonal anti-PGP9.5 (1:500), (ab108986; Abcam, Cambridge, MA, USA), and rat monoclonal anti-substance-P (SP; 1:100) (sc-21715; Santa Cruz Biotechnology, Dallas, TX, USA) for 24 h at room temperature with constant shaking. After being washed with PBS, the corneas were incubated with the corresponding secondary antibodies goat anti-rabbit Alexa-Fluor 488 (1:1000) and goat anti-rat Alexa-Fluor 488 (1:1000) (Thermo Fisher Scientific, Waltham, MA, USA) for 24 h at 4° C. Four radial cuts were performed on each cornea that was flatly mounted on a slide with the endothelium side up and examined with a fluorescent microscope (Deconvolution microscope DP80; Olympus, Tokyo, Japan). The images were merged together to build the entire view of the corneal nerve network. The corneal nerve density was measured using Photoshop CC 2014 (Adobe) as previously described (26, 29).

[5] = test system: trigeminal ganglion (TG) gene expression; test: Trigeminal ganglion RNA sequencing after corneal injury and treatment; format: in vivo, mouse; settings: RNA-seq, 12 days after corneal injury and topical treatment; vs vehicle
Description: Because corneal sensory nerves originate in TG neurons, we wanted to validate whether corneal injury could be sensed in the TG and t, in turn, would elicit a gene expression response. Thus, TG were harvested 12 days after injury and treatment with RvD6si or RvD6 or vehicle treatment used as control (FIG. 4) and then RNA-seq analysis was performed. […] The box plots depict two activated genes by RvD6si in this class: C9orf72 and Gpm6a (FIG. 6). We also detected specific genes related to neuropeptides and ion channel receptors in the cornea that are stimulated by the addition of PEDF+DHA (19, 21, 24) (FIG. 6D). The RNA-seq established that RvD6 or RvD6si reduced gene expression of two major neuropeptides, tachykinin precursor 1 (Tac1) that encodes Substance P (SP) and calcitonin-related polypeptide beta (Calcb). It is important to note that these neuropeptides, especially Calcb, are major pain-induced mediators in migraine and other primary headaches (30).
TG corresponding to the injury eye side (n=5) were harvested and kept in RNAlater solution (Thermo Fisher Scientific) until homogenized on ice using a Dounce homogenizer. Total mRNA was extracted using an RNeasy mini kit (Qiagen, Germantown, MD, USA) as described by the manufacturer. Purity and concentration of RNA were determined with a NanoDrop ND-1000 spectrophotometer (Thermo Fisher Scientific), and the samples were stored at −80° C. until used. RNA sequencing was performed using the adapted Smart-seq2 protocol (56). Briefly, one ng of total RNA was reverse transcribed with the Oligo-dT30VN and template-switching oligo (TSO) primers. The total cDNAs were amplified using ISPCR primer, and the library was made using the Nextera XT DNA library preparation kit (Illumina, San Diego, CA, USA). The libraries were pooled using the same molarity and sequenced using the NextSeq 500/550 High Output Kit v2 (75 cycles, Illumina). After demultiplexing, RNA-seq data were aligned to the GENCODE GRCm38 mouse primary genome assembly (Release M22, gencodegenes.org/mouse/) using the RSubread package v1.34.6 for R v3.6.1 (57). The outputted BAM files for sequencing data alignment were counted using featureCounts function (Subread v1.6.5 in Ubuntu LTS 16.4 operating system) (58). Next, the raw count data were subjected to differential gene expression analysis using DESeq2 package for R (59). The adjusted p-values were regarded as the false discover rate (FDR).

mouse cornea [6] = settings: topical eye drops, 3× daily for 96 hours; 2005 (76); cited from earlier work
[7] = Incorporation of DHA into PC and PE after topical DHA to corneas with damaged stromal nerves; format: in vivo; settings: 1 h, injured mouse corneas
Description: Proportion of PC and PE containing oleic acid (18:1) in the sn-1 and DHA in the sn-2 position. PE was more enriched in the DHA than PC. […] Corneal lipid profiles were analyzed by mass spectrometry-based lipidomic analysis.

corneal nerves [8] = settings: daily i.p. injections of 1 ng/g body weight for 8 weeks; 2017 (79); cited from earlier work
rabbit cornea = settings: cited from earlier work
injured corneas = settings: NPD1 added to injured corneas (27); cited from earlier work
mouse cornea [9] = settings: subconjunctival injection every 48 hours, 14 days; 2009 (77); cited from earlier work
[10] = topical NGF (95); cited from earlier work
[11] = test system: retinal pigment epithelial (RPE) cells; settings: RPE cells (16); cited from earlier work

CC/C=C\C[C@H](O)/C=C/C=C\C[C@@H](O)/C=C/C=C/C=C\[C@@H](O)CCC(=O)O [RvD3, Resolvin D3]
pain [1]: no effect

CC/C=C\C[C@@H](O)/C=C/C=C/C/C=C\C/C=C\C/C=C\CCC(=O)O [17R-hydroxy DHA]
pain behavior (AXL receptors): decrease pain behavior

CC/C=C\C[C@H](O)/C=C/C=C\C/C=C\C/C=C\C=C\[C@@H](O)CCC(=O)O [RvD6, 4S,17S-dihydroxy-5E,7Z,10Z,13Z,15E,19Z-docosahexaenoic acid, reference compound]
corneal wound healing (wound closure) (mouse cornea [2]): faster
corneal sensitivity (mouse cornea [3]): higher
total corneal nerve density, differences between RvD6si, RvD6, and PEDF+DHA (corneal nerves [4]; 12 days after injury and treatment): no significant differences
total corneal nerve density (PGP 9.5) (corneal nerves [4]; 12 days after injury and treatment, % of the normal (uninjured) cornea): 59.7±11.2%
density of SP-positive nerves (corneal nerves [4]; 12 days after injury, compared to the vehicle-treated group): higher
Calcb gene expression in TG [5]: reduced
Tac1 gene expression in TG [5]: reduced

CC/C=C\C[C@H](O)/C=C\C=C\C/C=C/C=C/C=C/C(O)[C@@H](O)CCC(=O)O (stereo in doubt) [RvD4, Resolvin D4]
pain [1]: no effect

CC/C=C\C[C@H](O)/C=C/C=C\C/C=C\C/C=C\C/C=C\CCC(=O)O [17S-HDHA]
PMNs in the cornea (mouse cornea [6]): Increased
formation of the proinflammatory chemokine KC (mouse cornea [6]): Decreased
rate of re-epithelialization (mouse cornea [6]): Increased the rate of re-epithelialization

CC/C=C\C/C=C\C/C=C\C/C=C\C/C=C\C/C=C\CCC(=O)O [DHA, docosahexaenoic acid]
incorporation of the fatty acid in PC and PE molecular species containing 18:1-DHA [7]: rapid incorporation

CC/C=C\C[C@H](O)[C@H](O)/C=C/C=C/C=C\C=C\[C@@H](O)C/C=C\CCC(=O)OC [RvD2-methyl ester]
diabetes-induced corneal nerve lost (corneal nerves [8]): Reduced the diabetes-induced comeal nerve

CC/C=C\C[C@H](O)\C=C/C=C/C=C/[C@H](O)C/C=C\C/C=C\CCC(=O)O [NPD1, neuroprotectin D1]
PMNs in the cornea (mouse cornea [6]): Increased
formation of the proinflammatory chemokine KC (mouse cornea [6]): Decreased
rate of re-epithelialization (mouse cornea [6]): Increased the rate of re-epithelialization
neutrophil infiltration (rabbit cornea; after 2 and 4 days of treatment, 2013 (41)): Decreased neutrophil infiltration after 2 and 4
subepithelial corneal nerves and tear secretion (rabbit cornea; topical eye drops 33 ng/eye, 3× daily for 6 weeks, 2013 (41)): Increased subepithelial corneal nerves and tear
gene expression and protein levels of NGF, BDNF and Sema7A (injured corneas): increase

CC/C=C\C[C@H](O)/C=C/C=C\C/C=C\C=C\[C@@H](O)C/C=C\CCC(=O)O [RvD5, Resolvin D5]
pain [1]: pain attenuation

CC/C=C\C[C@H](O)/C=C/C=C\C=C\C=C\[C@@H](O)[C@@H](O)C/C=C\CCC(=O)O [RvD1, Resolvin D1]
mRNA expression levels of TNF-α, IL-1α, IL-1β, VEGF-A, VEGF-C, and VEGFR2 (mouse cornea [9]): macrophages and reduced mRNA expression
suture-induced or IL-1β-induced hemangiogenesis (HA) (mouse cornea [9]): Suppressed suture-induced or IL-1β-induced
diabetes-induced corneal nerve lost (corneal nerves [8]): Reduced the diabetes-induced comeal nerve
pain [1]: pain attenuation

NGF: nerve growth factor
side effect of topical treatment [10]: ocular pain

CC/C=C\C[C@H](O)/C=C/C=C\C=C\C=C\[C@@H](O)[C@@H](O)C/C=C\CCC(=O)OC [RvD1-methyl ester]
diabetes-induced corneal nerve lost (corneal nerves [8]): Reduced the diabetes-induced comeal nerve

B1: PEDF: pigment epithelium-derived factor, a broad-acting neurotrophic and neuroprotective factor (protein, UniProt P36955 20-418, looked up)
Pigment epithelium-derived …: QNPASPPEEGSPDPDSTGALVEEEDPFFKVPVNKLAAAVSNFGYDLYRVRSSTSPTTNVLLSPLSVATALSALSLGAEQRTESIIHRALYYDLISSPDIHGTYKELLDTVTAPQKNLKSASRIVFEKKLRIKSSFVAPLEKSYGTRPRVLTGNPRLDLQEINNWVQAQMKGKLARSTKEIPDEISILLLGVAHFKGQWVTKFDSRKTSLEDFYLDEERTVRVPMMSDPKAVLRYGLDSDLSCKIAQLPLTGSMSIIFFLPLKVTQNLTLIEESLTSEFIHDIDRELKTVQAVLTVPKLKLSYEGEVTKSLQEMKLQSLFDSPDFSKITGKPIKLTQVEHRAGFEWNEDGAGTTPSPGLQPAHLTFPLDYHLNQPFIFVLRDTDTGALLFIGKILDPRGP
cornea nerve regeneration (rabbit cornea; treatment with PEDF or DHA alone (19)): no increase
potency in stimulating NPD1 synthesis relative to NGF [11]: 10 times
